From patent US20060276464A1, “Diarylsulfone sulfonamides and use thereof” (Wyeth, priority 2005, published 2006) come the findings set out here.

For assay [1], the target named is T1, SFRP-1 (Homo sapiens, UniProt Q8N474).
T1 sequence (Q8N474 32-314): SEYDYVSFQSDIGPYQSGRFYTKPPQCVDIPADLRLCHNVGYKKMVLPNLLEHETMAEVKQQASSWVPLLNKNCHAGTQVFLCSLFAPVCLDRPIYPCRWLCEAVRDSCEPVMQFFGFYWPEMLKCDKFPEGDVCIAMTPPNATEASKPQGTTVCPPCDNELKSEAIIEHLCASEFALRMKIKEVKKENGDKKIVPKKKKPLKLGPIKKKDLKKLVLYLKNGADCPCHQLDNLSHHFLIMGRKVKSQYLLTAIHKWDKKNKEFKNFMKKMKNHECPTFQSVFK
As to the kind of experiment: Fluorescence polarization binding assay (competitive displacement of a probe compound from SFRP-1).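 Also: test compound competes with a fluorescent probe held by SFRP-1, seen as a drop in probe anisotropy after incubation in darkness, with anisotropy as function of rising compound dose.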 The following applies: fluorescence anisotropy, 45 nM SFRP-1, 20 nM probe. In general terms: Polarisation of emitted light reports the rotation of a fluorescent probe.

Assay [2] deals with T1, SFRP-1. In words: Cell-based assay for in vitro measurement of SFRP-1/SARP2 antagonist activity (U2OS cells co-transfected with 16x TCF-tk-Luciferase reporter, Wnt and hSFRP-1).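 As to all read-outs here: U2OS cells co-transfected with a TCF-tk luciferase reporter, a Wnt vector, hSFRP-1 or empty vector and CMV-βgal, luciferase luminescence read in cell lysates alongside βgal activity.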 The note with it: for fold induction at 10 µM: U2OS, read-out: Fold Induction with SFRP-1, U2OS cells, single dose 10 μM, luciferase reporter, fold induction over SFRP-1 control. (Reporter assays use an easily measured gene product as a stand-in for the process of interest.)

pEC50, pIC50: −log10 of the molar value.

At SFRP-1 [1], `Nc1ccc(CNS(=O)(=O)c2cc(S(=O)(=O)c3ccccc3)ccc2C(F)(F)F)cc1` [Example 942, N-(4-aminobenzyl)-5-(phenylsulfonyl)-2-(trifluoromethyl)benzenesulfonamide] gave a negative-log IC50 (pIC50) of 6.72. For the same molecule, at SFRP-1 [2], the pEC50 is 6.68 and the fold induction at 10 µM was 3.8.

Regarding `O=S(=O)(NCCc1ccc(O)cc1)c1cc(S(=O)(=O)c2ccccc2)ccc1C(F)(F)F` [Example 943, N-[2-(4-hydroxyphenyl)ethyl]-5-(phenylsulfonyl)-2-(trifluoromethyl)benzenesulfonamide], the negative logarithm of the IC50 (pIC50) at SFRP-1 [1] is 6.40. For the same molecule, on SFRP-1 [2], the negative-log EC50 (pEC50) was 6.24 and the fold induction at 10 µM came to 3.4.

As for `O=C(O)CN1CCC(CCNS(=O)(=O)c2cc(S(=O)(=O)c3ccccc3)ccc2C(F)(F)F)CC1` [Example 944, {4-[2-({[5-(phenylsulfonyl)-2-(trifluoromethyl)phenyl]sulfonyl}amino)ethyl]piperidin-1-yl}acetic acid], the pIC50 at SFRP-1 [1] was 5.77. Moreover, on SFRP-1 [2], the pEC50 was 5.84 and the fold induction at 10 µM worked out at 2.9.

On to `COC(=O)C1CCCC(NS(=O)(=O)c2cc(S(=O)(=O)c3ccccc3)ccc2C(F)(F)F)C1` (stereo not drawn) [Example 945, methyl 3-({[5-(phenylsulfonyl)-2-(trifluoromethyl)phenyl]sulfonyl}amino)cyclohexanecarboxylate], for which the negative logarithm of the IC50 (pIC50) on SFRP-1 [1] is 6.05. Besides, at SFRP-1 [2], the pEC50 is 5.95 and the fold induction at 10 µM stood at 2.9.

Take `COC(=O)C1CCC(NS(=O)(=O)c2cc(S(=O)(=O)c3ccccc3)ccc2C(F)(F)F)CC1` (stereo not drawn) [Example 946, methyl 4-({[5-(phenylsulfonyl)-2-(trifluoromethyl)phenyl]sulfonyl}amino)cyclohexanecarboxylate]: the negative-log IC50 (pIC50) at SFRP-1 [1] was 6.30. On SFRP-1 [2], the pEC50 is 5.84 and the fold induction at 10 µM worked out at 3.

In the case of `COC(=O)[C@H]1CC[C@H](CNS(=O)(=O)c2cc(S(=O)(=O)c3ccccc3)ccc2C(F)(F)F)CC1` [Example 947, methyl trans-4-[({[5-(phenylsulfonyl)-2-(trifluoromethyl)phenyl]sulfonyl}amino)methyl]cyclohexanecarboxylate], on SFRP-1 [1], the negative-log IC50 (pIC50) is 6.40. In addition, at SFRP-1 [2], the negative logarithm of the EC50 (pEC50) is 6.16 and the fold induction at 10 µM came to 3.2.

On SFRP-1 [1], `CC1(C)CC(NS(=O)(=O)c2cc(S(=O)(=O)c3ccccc3)ccc2C(F)(F)F)CC(C)(C)N1` [Example 948, 5-(phenylsulfonyl)-N-(2,2,6,6-tetramethylpiperidin-4-yl)-2-(trifluoromethyl)benzenesulfonamide] showed a pIC50 of 5.22. At SFRP-1 [2], the pEC50 is 5.56 and the fold induction at 10 µM was 2.4.

On to `O=S(=O)(NCc1ccncc1)c1cc(S(=O)(=O)c2ccccc2)ccc1C(F)(F)F` [Example 949, 5-(phenylsulfonyl)-N-(pyridin-4-ylmethyl)-2-(trifluoromethyl)benzenesulfonamide], for which the pIC50 on SFRP-1 [1] was 6.10. On SFRP-1 [2], the negative-log EC50 (pEC50) is 6.00 and the fold induction at 10 µM was 3.2.

In turn, `COC(=O)c1ccc(CNS(=O)(=O)c2cc(S(=O)(=O)c3ccccc3)ccc2C(F)(F)F)cc1` [Example 950, methyl 4-[({[5-(phenylsulfonyl)-2-(trifluoromethyl)phenyl]sulfonyl}amino)methyl]benzoate] gave a pIC50 on SFRP-1 [1] of 5.74. For the same molecule, at SFRP-1 [2], the negative-log EC50 (pEC50) was 5.74 and the fold induction at 10 µM stood at 2.6.

`CC(C)c1ccc(S(=O)(=O)c2ccccc2)cc1S(=O)(=O)NC1CCCC(C(=O)O)C1` (stereo not drawn) [Example 952, 3-({[2-isopropyl-5-(phenylsulfonyl)phenyl]sulfonyl}amino)cyclohexanecarboxylic acid]: at SFRP-1 [1], the negative logarithm of the IC50 (pIC50) is 5.30. The fold induction at 10 µM at SFRP-1 [2] worked out at 1.4.

`CC(C)c1ccc(S(=O)(=O)c2ccccc2)cc1S(=O)(=O)NC1CCC(C(=O)O)CC1` (stereo not drawn) [Example 953, 4-({[2-isopropyl-5-(phenylsulfonyl)phenyl]sulfonyl}amino)cyclohexanecarboxylic acid] had a pIC50 at SFRP-1 [1] of 5.15. The fold induction at 10 µM at SFRP-1 [2] amounted to 1.5.

`CC(C)c1ccc(S(=O)(=O)c2ccccc2)cc1S(=O)(=O)NC[C@H]1CC[C@H](C(=O)O)CC1` [Example 954, trans-4-[({[2-isopropyl-5-(phenylsulfonyl)phenyl]sulfonyl}amino)methyl]cyclohexanecarboxylic acid]: at SFRP-1 [1], the pIC50 is 6.05. On SFRP-1 [2], the pEC50 was 5.25 and the fold induction at 10 µM is 2.2.

On SFRP-1 [1], `CN(CCCNS(=O)(=O)c1cc(S(=O)(=O)c2ccccc2)ccc1C(F)(F)F)C(=O)NC1CCN(C(=O)OC(C)(C)C)CC1` [Example 955] gave a negative logarithm of the IC50 (pIC50) of 5.22. For the same molecule, at SFRP-1 [2], the pEC50 is 5.29 and the fold induction at 10 µM was determined as 2.4.

The molecule `O=C(O)c1cccc(N2CCC(CNS(=O)(=O)c3cc(S(=O)(=O)c4ccccc4)ccc3C(F)(F)F)CC2)c1` [Example 956, 3-{4-[({[5-(phenylsulfonyl)-2-(trifluoromethyl)phenyl]sulfonyl}amino)methyl]piperidin-1-yl}benzoic acid] gave a negative logarithm of the IC50 (pIC50) at SFRP-1 [1] of 6.96. On SFRP-1 [2], the pEC50 was 6.51 and the fold induction at 10 µM came out at 4.3.

As to `O=C(O)c1cccc(N2CCC(CCNS(=O)(=O)c3cc(S(=O)(=O)c4ccccc4)ccc3C(F)(F)F)CC2)c1` [Example 957, 3-{4-[2-({[5-(phenylsulfonyl)-2-(trifluoromethyl)phenyl]sulfonyl}amino)ethyl]piperidin-1-yl}benzoic acid], the pIC50 at SFRP-1 [1] was 6.52. At SFRP-1 [2], the negative-log EC50 (pEC50) was 5.86 and the fold induction at 10 µM was 3.9.

As to `N[C@H]1CC[C@H](NS(=O)(=O)c2cc(S(=O)(=O)c3ccccc3)ccc2C(F)(F)F)CC1` [Example 959, N-(trans-4-aminocyclohexyl)-5-(phenylsulfonyl)-2-(trifluoromethyl)benzenesulfonamide], at SFRP-1 [1], the negative-log IC50 (pIC50) was 6.40. On SFRP-1 [2], the pEC50 was 6.41 and the fold induction at 10 µM came to 3.7.

With `CN(CCNS(=O)(=O)c1cc(S(=O)(=O)c2ccccc2)ccc1C(F)(F)F)CCC(=O)OC(C)(C)C` [Example 961, tert-butyl N-methyl-N-[2-({[5-(phenylsulfonyl)-2-(trifluoromethyl)phenyl]sulfonyl}amino)ethyl]-[…]-alaninate], the negative logarithm of the IC50 (pIC50) on SFRP-1 [1] was 5.40. Also, at SFRP-1 [2], the negative-log EC50 (pEC50) is 5.59 and the fold induction at 10 µM was found to be 2.8.

Consider `CN(CCNS(=O)(=O)c1cc(S(=O)(=O)c2ccccc2)ccc1C(F)(F)F)CC(=O)OC(C)(C)C` [Example 962, tert-butyl N-methyl-N-[2-({[5-(phenylsulfonyl)-2-(trifluoromethyl)phenyl]sulfonyl}amino)ethyl]glycinate], for which the negative logarithm of the IC50 (pIC50) on SFRP-1 [1] is 5.52. Further, on SFRP-1 [2], the pEC50 was 5.54 and the fold induction at 10 µM stood at 2.7.

For the molecule `O=C(O)c1cccc(S(=O)(=O)Nc2ccc(CNS(=O)(=O)c3cc(S(=O)(=O)c4ccccc4)ccc3C(F)(F)F)cc2)c1` [Example 963], the negative-log IC50 (pIC50) at SFRP-1 [1] is 6.52. On SFRP-1 [2], the pEC50 was 5.94 and the fold induction at 10 µM stood at 3.5.

`N#Cc1ccc(CCNS(=O)(=O)c2cc(S(=O)(=O)c3ccccc3)ccc2C(F)(F)F)cc1` [Example 966, N-[2-(4-cyanophenyl)ethyl]-5-(phenylsulfonyl)-2-(trifluoromethyl)benzenesulfonamide] showed a pIC50 on SFRP-1 [1] of 6.30. Besides, on SFRP-1 [2], the pEC50 is 6.64 and the fold induction at 10 µM amounted to 1.5.

On SFRP-1 [1], `O=C(O)C1CCCC(NS(=O)(=O)c2cc(S(=O)(=O)c3ccccc3)ccc2C(F)(F)F)C1` (stereo not drawn) [Example 967, 3-({[5-(phenylsulfonyl)-2-(trifluoromethyl)phenyl]sulfonyl}amino)cyclohexanecarboxylic acid] had a pIC50 of 5.60. The fold induction at 10 µM at SFRP-1 [2] amounted to 2.1.

As to `O=C(O)C1CCC(NS(=O)(=O)c2cc(S(=O)(=O)c3ccccc3)ccc2C(F)(F)F)CC1` (stereo not drawn) [Example 968, 4-({[5-(phenylsulfonyl)-2-(trifluoromethyl)phenyl]sulfonyl}amino)cyclohexanecarboxylic acid], on SFRP-1 [1], the negative-log IC50 (pIC50) was 5.85. The fold induction at 10 µM on SFRP-1 [2] worked out at 2.4.

`O=C(O)[C@H]1CC[C@H](CNS(=O)(=O)c2cc(S(=O)(=O)c3ccccc3)ccc2C(F)(F)F)CC1` [Example 969, trans-4-[({[5-(phenylsulfonyl)-2-(trifluoromethyl)phenyl]sulfonyl}amino)methyl]cyclohexanecarboxylic acid]: the negative-log IC50 (pIC50) on SFRP-1 [1] was 6.74. Further, on SFRP-1 [2], the pEC50 is 6.23 and the fold induction at 10 µM was 3.1.

On SFRP-1 [1], `CN(CCCNS(=O)(=O)c1cc(S(=O)(=O)c2ccccc2)ccc1C(F)(F)F)C(=O)NC1CCNCC1` [Example 971, N-(3-{methyl[(piperidin-4-ylamino)carbonyl]amino}propyl)-5-(phenylsulfonyl)-2-(trifluoromethyl)benzenesulfonamide] had a negative logarithm of the IC50 (pIC50) of 6.22. Besides, at SFRP-1 [2], the pEC50 was 6.11 and the fold induction at 10 µM is 2.7.

Molecule `CN(CCCNS(=O)(=O)c1cc(S(=O)(=O)c2ccccc2)ccc1C(F)(F)F)C(=O)N1CCNCC1` [Example 975, N-methyl-N-[3-({[5-(phenylsulfonyl)-2-(trifluoromethyl)phenyl]sulfonyl}amino)propyl]piperazine-1-carboxamide] showed a pIC50 at SFRP-1 [1] of 5.82. The molecule further had a pEC50 at SFRP-1 [2] of 5.24.

For `O=C(c1cc(Cl)cnc1Cl)N1CCC(NS(=O)(=O)c2cc(S(=O)(=O)c3ccccc3)ccc2C(F)(F)F)CC1` [Example 977, N-{1-[(2,5-dichloropyridin-3-yl)carbonyl]piperidin-4-yl}-5-(phenylsulfonyl)-2-(trifluoromethyl)benzenesulfonamide], at SFRP-1 [1], the pIC50 is 6.74. The pEC50 at SFRP-1 [2] was 5.96.

The term pIC50 denotes the negative decadic logarithm of the IC50, by convention in mol/L. The pEC50 is −log10 of the EC50, conventionally taken in molar units. Low readings indicate a large EC50, high ones a small EC50.
